According to article PMC12171319, “3‐Oxabicyclo[3.1.1]heptane as an Isostere of meta‐Benzene” (Angewandte Chemie (International Ed. in English), 2025):
pIC50: −log10 of the molar value. Converted amounts (≈) assume the structure as drawn. Where two headings read alike, the source gives them in different places.

What was measured:
[1] = Metabolic stability in human liver microsomes; assay type: in vitro ADME; conditions: both sexes, human
Procedure: 9. Metabolic Stability in Human Liver Microsomes
The objective of this study was to determine the metabolic stability of 3 test articles (EN300- […]
in human liver microsomes at five-time points over 40 minutes using HPLC-MS. Metabolic stability is defined as the percentage of parent compound lost over time in the presence of a metabolically active test system.
Potassium phosphate monobasic (Bio-Basic, Canada; Lot #N9016010)
Potassium phosphate dibasic (Bio-Basic, Canada; Lot #MA7100050) […]
Glucose-6-phosphate dehydrogenase from baker's yeast, type XV (Sigma-Aldrich, USA; Cat […]
D-Glucose-6-phosphate sodium salt (Sigma-Aldrich, USA; Cat #G7879-1G)
NADPH tetrasodium salt (BLD Pharmatech Ltd., Cat #BD116582)
Verapamil hydrochloride (Sigma Aldrich, USA; Cat #V4629)
Niclosamide (Sigma-Aldrich, USA; Cat #N3510)
DMSO stock solutions of the tested compounds 20 mM
Gradient HPLC system (Shimadzu)
Triple quadrupole mass-detector API 3000 with TurboIonSpray Ion Source (AB Sciex, Canada) […]
Multichannel pipettors 1-30 µL, 2-125 µL, 30-850 µL (Thermo Scientific) […]
All measurements were performed using the Shimadzu HPLC system including vacuum degasser, gradient pumps, reverse phase HPLC column, column oven, and autosampler. Mass spectrometric analysis was performed using an API 3000 mass spectrometer from Applied Biosystems/MDS Sciex (AB Sciex) with Turbo V ion source and TurboIonspray interface. The […]
and system control were performed using Analyst 1.6.3 software from AB Sciex.
Microsomal incubations were carried out in 96-well plates in 5 aliquots of 30 μL each (one for each time point). Liver microsomal incubation medium comprised of phosphate buffer (100 mM, pH 7.4), MgCl2 (3.3 mM), NADPН (3 mM), glucose-6-phosphate (5.3 mM), glucose-6-phosphate dehydrogenase (0.67 units/mL) with 0.42 mg of liver microsomal protein per mL. In the control reactions, the NADPH-cofactor system was substituted with phosphate buffer. Test compounds […]
100 rpm. Five-time points over 40 minutes were analyzed. The reactions were stopped by adding 5 volumes of acetonitrile with internal standard to incubation aliquots, followed by protein sedimentation by centrifuging at 5500 rpm for 5 min. Each reaction was performed in duplicates.
Supernatants were analyzed using the HPLC system coupled with a tandem mass spectrometer.
The elimination constant (kel), half-life (t1/2), and intrinsic clearance (Clint) were determined in a plot of […] versus time, using linear regression analysis:1
1 In order to indicate the quality of the linear regression analysis, the R2 (determination coefficient) values are provided.
In some cases, the last time point is excluded from the calculations to ensure acceptable logarithmic linearity of decay.

[2] = system: Hedgehog signaling pathway; conditions: Mus musculus
[3] = Table S5, 2nd batch
[4] = Kinetic solubility in phosphate-buffered saline, pH 7.4; assay type: physicochemical; conditions: 25 °C, pH 7.4, aqueous buffer, kinetic from dmso stock; for solubility at 2 h: PBS solubility
Procedure: page 239: 7. […] The data […] analysis software. […] page 240: Methods Kinetic solubility assay was performed according to Enamine's aqueous solubility SOP. Briefly, […] theoretical concentration of 400 μM in duplicates in phosphate-buffered saline pH 7.4 […] The experimental compound dilutions in PBS were further allowed to equilibrate at 25 °C on a thermostatic shaker for two hours and then filtered through HTS filter plates using a vacuum manifold. The filtrates of test […] prepared to theoretical concentrations of 0 μM (blank), 10 μM, 25 μM, 50 μM, 100 μM, and 200 […] Ondansetron was used as a reference compound to control proper assay performance. 200 μL of each sample was transferred to a 96-well plate and measured in the 230-550 nm range with a 5 nm step. The concentrations of compounds in PBS filtrate are calculated using a dedicated Microsoft Excel calculation script. Proper absorbance wavelengths for calculations are selected for each compound manually based on absorbance maximums (absolute absorbance unit values for the minimum and maximum concentration points within the 0 - 3 OD range). Each final dataset is visually evaluated by the operator, and goodness of fit (R2) is calculated for each calibration curve. […] close to the upper limit of the range may have higher actual solubility (e.g. 5'-deoxy-5- fluorouridine). The calibration curves are shown in Appendix*. […] Compound ID PBS solubility, pH 7.4, μM SE […] Ondansetron 128 126 127** 1.1 EN300-7362818 6 6 6 0.2 (Sonidegib) BCHep-Sonidegib (50) 5 3 4 0.9 Table S3. 2nd batch PBS solubility, pH 7.4, μM Compound ID SE […] Ondansetron 124 124 124** 0.1 EN300-45381956 (51) 34 34 34 0.2 *Goodness of fit (R2) in all titration curves as well as the variations between repeat measurements indicates a high quality of the experimental data in the current batch of test articles. **Ondansetron solubility data are consistent with those previously obtained. […]

[5] = in vitro; conditions: human; for Papp A→B at 90 min, 10 µM: Caco-2, pH 7.4, Papp (AB); for Papp B→A at 90 min, 10 µM: Caco-2, pH 7.4, Papp (BA)
[6] = physchem

`CC1CN(c2ccc(NC(=O)C34COCC(c5ccc(OC(F)(F)F)cc5)(C3)C4)cn2)CC(C)O1` (stereo not shown) [Compound 51] showed a remaining at 40 min, 2 µM ([1]; human liver microsomes, pH 7.4, Table S7, 2nd batch, no NADPH, read-out: % Remaining without cofactor, Mean of 2) of 104%, a half-life at 2 μM ([1]; human liver microsomes, pH 7.4, human liver microsomes, read-out: t1/2: experimental half-time of a metabolic decomposition) of 1.02 h and a k el at 2 µM ([1]; human liver microsomes, pH 7.4, Table S7, 2nd batch) of 0.000183 s⁻¹. The half-life at 2 μM ([1]; human liver microsomes, pH 7.4, Table S7, 2nd batch, read-out: t1/2) was 1.01 h, the microsomal CLint at 2 μM ([1]; human liver microsomes, pH 7.4, read-out: CLint: experimental metabolic stability in human liver microsomes) was 28 µL/min/mg and the remaining at 7 min, 2 µM ([1]; liver microsomes, pH 7.4, Table S7, 2nd batch, 7 min, 2 µM) was 96%. For the same compound, the remaining at […], 2 µM ([1]; liver microsomes, pH 7.4, Table S7, 2nd batch, 15 min, 2 µM) was 89%, the remaining at 25 min, 2 µM ([1]; liver microsomes, pH 7.4, Table S7, 2nd batch, 25 min, 2 µM) was 77% and the remaining at 40 min, 2 µM ([1]; liver microsomes, pH 7.4, Table S7, 2nd batch, 2 µM, read-out: % Remaining, Mean of 2) was 64%. The pIC50 ([2]; NIH3T3, read-out: IC50 (HH signal): inhibition of the Hedgehog signaling pathway, Gli reporter NIH3T3 cell line) was 7.02, the IC50 ([2]; NIH3T3, read-out: pIC50, Hedgehog signaling pathway, experiment with EN300-45381956 (51) (converted), calculated from IC50) was 100 nM and the D ([3]; incubation 1) was 7.16E+04. The D ([3]; incubation 2) was 6.24E+04, the D ([3]; incubation 3) was 6.33E+04 and the solubility kinetic at 2 h [4] was 34 µM (≈ 16.7 µg/mL). The solubility at 2 h ([4]; pH 7.4, Incubation 1) was 34 µM (≈ 16.7 µg/mL), the solubility at 2 h ([4]; pH 7.4, Incubation 2) was 34 µM (≈ 16.7 µg/mL) and the solubility at 2 h ([4]; pH 7.4, Mean) was 34 µM (≈ 16.7 µg/mL). The efflux ratio at 90 min, 10 µM ([5]; Caco-2, pH 7.4) was 1.5, the Papp A→B at 90 min, 10 µM ([5]; Mean) was 5.4 ×10⁻⁶ cm/s and the Papp A→B at 90 min, 10 µM ([5]; replicate 1) was 6.3 ×10⁻⁶ cm/s. It also gave a Papp A→B at 90 min, 10 µM ([5]; replicate 2) of 4.5 ×10⁻⁶ cm/s, a Papp B→A at 90 min, 10 µM ([5]; Mean) of 8 ×10⁻⁶ cm/s and a Papp B→A at 90 min, 10 µM ([5]; replicate 1) of 7.3 ×10⁻⁶ cm/s. For the same compound, the Papp B→A at 90 min, 10 µM ([5]; replicate 2) was 8.7 ×10⁻⁶ cm/s, the recovery at 90 min, 10 µM ([5]; Caco-2, pH 7.4, Recovery A-B in presence of Verapamil, Mean) was 51% and the recovery at 90 min, 10 µM ([5]; Caco-2, pH 7.4, Recovery A-B in presence of Verapamil, replicate 1) was 53%. It also gave a recovery at 90 min, 10 µM ([5]; Caco-2, pH 7.4, Recovery A-B in presence of Verapamil, replicate 2) of 49%, a recovery at 90 min, 10 µM ([5]; Caco-2, pH 7.4, Recovery A-B, Mean) of 43% and a recovery at 90 min, 10 µM ([5]; Caco-2, pH 7.4, Recovery A-B, replicate 1) of 44%. For the same compound, the recovery at 90 min, 10 µM ([5]; Caco-2, pH 7.4, Recovery A-B, replicate 2) was 43%, the recovery at 90 min, 10 µM ([5]; Caco-2, pH 7.4, Recovery B-A in presence of Verapamil, Mean) was 77% and the recovery at 90 min, 10 µM ([5]; Caco-2, pH 7.4, Recovery B-A in presence of Verapamil, replicate 1) was 69%. The recovery at 90 min, 10 µM ([5]; Caco-2, pH 7.4, Recovery B-A in presence of Verapamil, replicate 2) was 86%, the recovery at 90 min, 10 µM ([5]; Caco-2, pH 7.4, Recovery B-A, Mean) was 70% and the recovery at 90 min, 10 µM ([5]; Caco-2, pH 7.4, Recovery B-A, replicate 1) was 71%. It also gave a recovery at 90 min, 10 µM ([5]; Caco-2, pH 7.4, Recovery B-A, replicate 2) of 69%, a logD at 1 h ([6]; pH 7.4, LogD, pH 7.4) of no less than 4.5 and a logD at 1 h ([6]; pH 7.4, LogD, pH 7.4 (overall of 3 incubations)) of no less than 4.5. It also gave a logD at 1 h ([6]; pH 7.4, logD (7.4): experimental distribution coefficient in n-octanol/phosphate-buffered saline, pH 7.4) of no less than 4.
